Our source for the EC50 and Emax values is patent US20230265151A1, “GIP/GLP1 CO-AGONIST COMPOUNDS” (priority 2020, published 2023).

Like-named read-outs stand apart in the source and are kept apart here. *1 amine or outer side, *2 acyl side, *3 side chain or, on linkers, in order; H or OH if unused. Where a SMILES comes first, the peptide text is derived from it. Side-chain parts run from the residue outwards. [ ]: non-standard residue; d: D form. The star is where a group is joined. αMePhe(2-F) = C[C@](N)(Cc1ccccc1F)C(=O)O; γGlu = O=C(O)[C@H](CCC(=O)[*:2])N[*:1]; αMeY = C[C@](N)(Cc1ccc(O)cc1)C(=O)O; 4Pal = N[C@@H](Cc1ccncc1)C(=O)O; αMeL = CC(C)C[C@](C)(N)C(=O)O; Lauroyl = CCCCCCCCCCCC(=O)*; Orn = NCCC[C@H](N)C(=O)O; AEEA = NCCOCCOCC(=O)O; Aib = CC(C)(N)C(=O)O

Assay type in all cases: cell-based
For assay [1], the target named is T1, hGIPR (Homo sapiens, UniProt P48546).
T1 construct: expressed in transfected cells
T1 sequence (P48546 22-466): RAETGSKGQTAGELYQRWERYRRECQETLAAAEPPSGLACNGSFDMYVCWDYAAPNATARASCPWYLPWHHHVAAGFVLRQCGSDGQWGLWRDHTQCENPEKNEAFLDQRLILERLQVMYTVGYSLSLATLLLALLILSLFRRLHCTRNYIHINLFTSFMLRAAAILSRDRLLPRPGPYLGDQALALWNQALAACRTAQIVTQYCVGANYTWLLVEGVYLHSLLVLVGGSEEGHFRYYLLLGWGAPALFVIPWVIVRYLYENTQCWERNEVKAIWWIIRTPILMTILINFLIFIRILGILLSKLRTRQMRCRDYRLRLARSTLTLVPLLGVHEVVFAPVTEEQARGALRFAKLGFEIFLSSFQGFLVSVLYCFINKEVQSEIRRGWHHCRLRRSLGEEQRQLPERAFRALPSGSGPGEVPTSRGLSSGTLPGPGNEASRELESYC
The experiment in a line: Functional cAMP formation (HTRF) in HEK-293 clonal cells expressing hGIPR, 0.1% bovine casein, without or with 1.0% human serum albumin. The settings on record: for EC50: geometric mean, read-out: hGIPR EC50, nM (SEM, n); for Emax: read-out: hGIPR Emax, % ± SEM. In short, it runs like this: (§1)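 Cells were stimulated with peptide for 30 min at 37° C, then intracellular cAMP was measured by competitive HTRF (665/620 nm ratio) and converted to nM using a cAMP standard curve. Relative EC50 and Emax came from four-parameter logistic fits of percent maximal response against peptide concentration.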
A general note: cAMP levels reflect the balance of adenylyl cyclase and phosphodiesterase activity.

Assay [2] has as its target T2, hGCGR (Homo sapiens, UniProt P47871).
T2 construct: expressed in transfected cells
Description: Functional cAMP formation (HTRF) in HEK-293 clonal cells expressing hGCGR, 0.1% bovine casein, without or with 1.0% human serum albumin. The settings on record: geometric mean, read-out: hGCGR EC50, nM (SEM, n). Summed up:
as §1

Assay [3] addresses hGLP-1R (Homo sapiens, UniProt P43220). The experiment in a line: Functional cAMP formation (HTRF) in HEK-293 clonal cells expressing hGLP-1R, 0.1% bovine casein, without or with 1.0% human serum albumin. The note with it: 37° C.; for EC50: geometric mean, read-out: hGLP-1R EC50, nM (SEM, n); for Emax: read-out: hGLP-1R Emax, % ± SEM. Also noted: expressed in transfected cells. In short, it runs like this:
as §1

Setting [4] is: 0.1% bovine casein and 1.0% human serum albumin, 37° C.
[5] abbreviates: HEK293, 0.1% bovine casein and 1.0% human serum albumin, 37° C., percent of maximal response to GIP(1-42)NH2.
Where [6] appears, read: cAMP, 37° C., 0.1% bovine casein (no human serum albumin).
[7] abbreviates: cAMP, incubated at 37° C., 0.1% bovine casein (no human serum albumin).

hGLP-1R, sequence (P43220 24-463): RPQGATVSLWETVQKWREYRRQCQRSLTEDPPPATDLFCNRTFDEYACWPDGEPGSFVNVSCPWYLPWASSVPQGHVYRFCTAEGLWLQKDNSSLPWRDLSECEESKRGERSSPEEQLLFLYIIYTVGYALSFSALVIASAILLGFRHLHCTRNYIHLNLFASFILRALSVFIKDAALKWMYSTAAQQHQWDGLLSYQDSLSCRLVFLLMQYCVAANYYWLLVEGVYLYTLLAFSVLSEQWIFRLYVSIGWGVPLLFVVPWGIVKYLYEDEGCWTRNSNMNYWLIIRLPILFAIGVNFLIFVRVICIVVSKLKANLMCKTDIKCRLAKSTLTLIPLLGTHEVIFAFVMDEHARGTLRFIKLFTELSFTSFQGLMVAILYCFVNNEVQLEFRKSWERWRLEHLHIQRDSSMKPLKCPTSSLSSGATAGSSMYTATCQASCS
T2 sequence (P47871 26-477): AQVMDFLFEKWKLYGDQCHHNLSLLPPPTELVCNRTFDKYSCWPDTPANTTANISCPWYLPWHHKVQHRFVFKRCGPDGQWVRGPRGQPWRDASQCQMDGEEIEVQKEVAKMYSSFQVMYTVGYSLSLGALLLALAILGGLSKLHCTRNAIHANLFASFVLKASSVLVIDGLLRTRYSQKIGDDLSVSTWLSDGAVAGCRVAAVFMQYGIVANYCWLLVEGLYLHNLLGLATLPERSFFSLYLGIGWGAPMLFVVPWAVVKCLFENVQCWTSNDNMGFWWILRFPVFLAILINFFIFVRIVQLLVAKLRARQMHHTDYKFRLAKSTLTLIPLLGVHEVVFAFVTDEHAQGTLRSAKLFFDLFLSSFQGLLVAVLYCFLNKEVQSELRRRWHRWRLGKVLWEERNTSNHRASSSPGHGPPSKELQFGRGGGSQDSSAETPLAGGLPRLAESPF

Turning to `CCCCCCCCCCCC(=O)N[C@@H](CCC(=O)NCCOCCOCC(=O)NCCOCCOCC(=O)NCCCC[C@H](NC(=O)[C@H](CCCN)NC(=O)[C@H](CC(=O)O)NC(=O)[C@H](CC(C)C)NC(=O)[C@](C)(CC(C)C)NC(=O)[C@@H](NC(=O)[C@H](CO)NC(=O)[C@H](Cc1ccncc1)NC(=O)[C@H](CC(=O)O)NC(=O)[C@H](CO)NC(=O)[C@@H](NC(=O)[C@](C)(Cc1ccccc1F)NC(=O)[C@@H](NC(=O)CNC(=O)[C@H](CCC(=O)O)NC(=O)C(C)(C)NC(=O)[C@@H](N)Cc1ccc(O)cc1)[C@@H](C)O)[C@@H](C)O)[C@@H](C)CC)C(=O)N[C@@H](C)C(=O)N[C@@H](CCC(N)=O)C(=O)NC(C)(C)C(=O)N[C@@H](CCC(=O)O)C(=O)N[C@@H](Cc1ccccc1)C(=O)N[C@H](C(=O)N[C@H](CCC(=O)O)C(=O)N[C@@](C)(Cc1ccc(O)cc1)C(=O)N[C@@H](CC(C)C)C(=O)N[C@H](C(=O)N[C@@H](CCCCNC(=O)COCCOCCNC(=O)COCCOCCNC(=O)CC[C@H](NC(=O)CCCCCCCCCCC)C(=O)O)C(=O)NCC(=O)NCC(N)=O)[C@@H](C)CC)[C@@H](C)CC)C(=O)O` [Example 296] (H-Y[Aib]EGT[αMePhe(2-F)]TSD[4Pal]SI[αMeL]LD[Orn]K([AEEA-AEEA-γGlu-Lauroyl])AQ[Aib]EFI[dE][αMeY]LIK([AEEA-AEEA-γGlu-Lauroyl])GG-NH2; N-terminus assumed), the EC50 (in general, the concentration needed to bring the measured effect to its halfway point) is 0.823 nM in assay [1] (setting [4]); 0.0121 nM in assay [1] (setting [6]); more than 9950 nM in assay [2] (setting [4]); more than 9950 nM in assay [2] (setting [6]); 13 nM in assay [3] (0.1% bovine casein and 1.0% human serum albumin); 0.108 nM in assay [3] (cAMP, 0.1% bovine casein (no human serum albumin)). The Emax – broadly, the size of the effect at its maximum, as opposed to the concentration needed – stood at 91.9% in assay [1] (setting [5]); 100% in assay [1] (HEK293, cAMP, 37° C., 0.1% bovine casein, percent of maximal response to GIP(1-42)NH2, arithmetic mean); 109% in assay [3] (HEK293, 0.1% bovine casein and 1.0% human serum albumin, percent of maximal response to GLP-1(7-36)NH2); 109% in assay [3] (HEK293, cAMP, 0.1% bovine casein, percent of maximal response to GLP-1(7-36)NH2, arithmetic mean).

For the compound `CC[C@H](C)[C@H](NC(=O)[C@H](CC(C)C)NC(=O)[C@](C)(Cc1ccc(O)cc1)NC(=O)[C@@H](CCC(=O)O)NC(=O)[C@@H](NC(=O)[C@H](Cc1ccccc1)NC(=O)[C@H](Cc1ccncc1)NC(=O)C(C)(C)NC(=O)[C@H](CCC(N)=O)NC(=O)[C@H](C)NC(=O)[C@H](CCCCNC(=O)COCCOCCNC(=O)COCCOCCNC(=O)CC[C@H](NC(=O)CCCCCCCCCCCCC(=O)O)C(=O)O)NC(=O)[C@H](CCCN)NC(=O)[C@H](CC(=O)O)NC(=O)[C@H](CC(C)C)NC(=O)[C@](C)(CC(C)C)NC(=O)[C@@H](NC(=O)[C@H](CO)NC(=O)[C@H](Cc1ccncc1)NC(=O)[C@H](CC(=O)O)NC(=O)[C@H](CO)NC(=O)[C@@H](NC(=O)[C@](C)(Cc1ccccc1F)NC(=O)[C@@H](NC(=O)CNC(=O)[C@H](CCC(=O)O)NC(=O)C(C)(C)NC(=O)[C@@H](N)Cc1ccc(O)cc1)[C@@H](C)O)[C@@H](C)O)[C@@H](C)CC)[C@@H](C)CC)C(=O)N[C@@H](CCC(=O)O)C(=O)NCC(=O)NCC(=O)N[C@@H](CCCCNC(=O)COCCOCCNC(=O)COCCOCCNC(=O)CC[C@H](NC(=O)CCCCCCCCCCCCC(=O)O)C(=O)O)C(=O)N[C@@H](CO)C(=O)N[C@@H](CO)C(=O)NCC(=O)N[C@@H](C)C(=O)N1CCC[C@H]1C(=O)N1CCC[C@H]1C(=O)N1CCC[C@H]1C(=O)N[C@@H](CO)C(N)=O` [Example 157], the EC50 in assay [1] (setting [4]) was 0.718 nM; in assay [1] (setting [7]), 0.0286 nM; in assay [2] (setting [4]), more than 9950 nM; in assay [2] (setting [7]), more than 9950 nM. For the same compound, the Emax in assay [1] (setting [5]) amounted to 89.6 ± 3.39%; in assay [1] (HEK293, percent of maximal response to GIP(1-42)NH2, 37° C., 0.1% bovine casein, arithmetic mean) it was 98.8 ± 1.33%; in assay [3] (HEK293, percent of maximal response to GLP-1(7-36)NH2, 0.1% bovine casein, arithmetic mean), 98.5 ± 4.73%.
